This passage reports IC50, concentration and Ki results from ChEMBL document CHEMBL2202979, “Development of macrocyclic inhibitors of HCV NS3/4A protease with cyclic constrained P2-P4 linkers” (Bioorg Med Chem Lett, 2012).

Data set [1] deals with Hepatitis C virus. In words: Antiviral activity against HCV genotype 1b Con1 infected in human Huh7 cells assessed as inhibition of viral replication in presence of 50% NHS by HCV bicistronic replicon assay. The note with it: Con1, Huh-7. Format: functional, organism-based, Hepacivirus hominis. In general terms: Replicon systems follow genome replication, usually without infectious particles.

Data set [2] is described as follows: Drug level in Sprague-Dawley rat liver at 5 mg/kg, po measured 4 hrs post dose by LC/MS method. Further details: dose 5 mg/kg, route oral. Format: ADME, organism-based. Conditions: read-out: Drug uptake.
The target in data set [3] is Genome polyprotein (Hepacivirus C, UniProt K7XJL6, D168V). As to the kind of experiment: Inhibition of HCV genotype 1b BK NS3/4A protease D168V mutant expressed in Escherichia coli incubated for 30 mins by time-resolved fluorescence assay. Set-up: species or system Hepatitis C virus (isolate BK).
Data set [4] is described as follows: Inhibition of HCV genotype 2a JFH NS3/4A protease expressed in Escherichia coli incubated for 30 mins by time-resolved fluorescence assay. Set-up: species or system Hepatitis C virus JFH-1.
For data set [5], the target named is Hepatitis C virus serine protease, NS3/NS4A (Hepatitis C virus, UniProt A3EZI9+D2K2A8, R155K). In words: Inhibition of HCV genotype 1b BK NS3/4A protease R155K mutant expressed in Escherichia coli incubated for 30 mins by time-resolved fluorescence assay. Further details: species or system Hepatitis C virus (isolate BK).
A short description of data set [6]: Inhibition of HCV subtype 3a NS3/4A protease incubated for 30 mins by time-resolved fluorescence assay. Set-up: species or system Hepatitis C virus subtype 3a.
Data set [7] has as its target Genome polyprotein (Hepacivirus C, UniProt K7XJL6, A156V). In words: Inhibition of HCV genotype 1b BK NS3/4A protease A156V mutant expressed in Escherichia coli incubated for 30 mins by time-resolved fluorescence assay. Further details: species or system Hepatitis C virus (isolate BK).
For data set [8], the system named is Hepatitis C virus. As to the kind of experiment: Antiviral activity against HCV genotype 1b Con1 infected in human Huh7 cells assessed as inhibition of viral replication in presence of 10% FBS by HCV bicistronic replicon assay. Format: functional, organism-based, Hepacivirus hominis. Conditions: Con1, Huh-7.
Data set [9] addresses Genome polyprotein (Hepacivirus C, UniProt K7XJL6, A156T). In words: Inhibition of HCV genotype 1b BK NS3/4A protease A156T mutant expressed in Escherichia coli incubated for 30 mins by time-resolved fluorescence assay. Set-up: species or system Hepatitis C virus (isolate BK).
The nature of data set [10]: Inhibition of HCV genotype 1b BK NS3/4A protease expressed in Escherichia coli incubated for 30 mins by time-resolved fluorescence assay. Further details: species or system Hepatitis C virus (isolate BK).

For orientation: IC50 means the concentration at which inhibition is half-maximal. For orientation: Ki means the equilibrium dissociation constant of an inhibitor or competing ligand from its target. Read a high Ki as a looser hold on the target.

Molecules are shown by their SMILES.

In the case of `C=C[C@@H]1C[C@]1(NC(=O)[C@@H]1C[C@@H]2CN1C(=O)[C@H](C1CCCC1)NC(=O)N1CC[C@@H](C1)OCCC/C=C/c1cc3ccc(OC)cc3nc1O2)C(=O)NS(=O)(=O)C1CC1`, the half-inhibitory concentration (IC50) in the data set with Hepatitis C virus [1] stood at 32 nM; in the data set on Hepatitis C virus [8], 3.1 nM. Moreover, the concentration at 4 h in data set [2] is 8.6 µM. Besides, the inhibitory constant (Ki) at Genome polyprotein [3] came out at 1.2 nM; in data set [4], 0.17 nM; in [5] it was 0.1 nM; in data set [6], 3 nM; on Genome polyprotein [7], 37 nM; on Genome polyprotein [9], 2.9 nM. This molecule also displayed an inhibitory constant (Ki) in data set [10] of 0.016 nM.

For the molecule `C=C[C@@H]1C[C@]1(NC(=O)[C@@H]1C[C@@H]2CN1C(=O)[C@H](C1CCCC1)NC(=O)OCC(C)(C)CCCc1cc3c(cc(OCC)nc3cc1OC)O2)C(=O)NS(=O)(=O)C1CC1`, the Ki on Genome polyprotein [3] worked out at 2.2 nM; in data set [4] it was 0.14 nM; in [5], 1.2 nM; in data set [6], 2.1 nM; in [10], 0.016 nM.

Turning to `C=C[C@@H]1C[C@]1(NC(=O)[C@@H]1C[C@@H]2CN1C(=O)[C@H](C1CCCC1)NC(=O)OCC(C)(C)C[C@@H]1C[C@@H]1c1cc3c(cc(OCC)nc3cc1OC)O2)C(=O)NS(=O)(=O)C1CC1`, the half-maximal inhibitory concentration (IC50) came to 11 nM in the data set on Hepatitis C virus [1] and 2.3 nM in the data set on Hepatitis C virus [8]. Further, the concentration at 4 h in [2] was 27 µM. For the same molecule, the inhibition constant Ki at Genome polyprotein [3] stood at 1.8 nM; in data set [4] it was 0.14 nM; in data set [5], 0.2 nM; in data set [6] it was 1 nM; on Genome polyprotein [7], 14 nM; on Genome polyprotein [9] it was 2.8 nM. Besides, the Ki in data set [10] is 0.016 nM.
